Laboratory results published in US8765096B2, “Methods and compositions for treating and diagnosing kidney disease” (Endocyte, Inc, priority 2007, dated 2014).
“Also recorded” adds a separate entry of the source.

Experiments:
KB cells = assay: Cell viability in KB cells; settings: 2, 10, and 50 nM, at 24 hours
folate receptor = folate receptor (Homo sapiens, UniProt P15328); settings: KB cells, 1 hour at 37° C., 100 nM 3H-folic acid, increasing competitor concentrations; folic acid = 1.0
folate receptor, sequence (P15328 25-234): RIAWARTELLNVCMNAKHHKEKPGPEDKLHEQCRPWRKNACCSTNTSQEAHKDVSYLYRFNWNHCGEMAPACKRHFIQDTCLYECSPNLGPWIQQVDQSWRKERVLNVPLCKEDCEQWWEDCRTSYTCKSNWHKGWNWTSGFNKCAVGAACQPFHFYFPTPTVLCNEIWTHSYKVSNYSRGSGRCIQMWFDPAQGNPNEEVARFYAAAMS

Question: How did the “cytotoxicity (cell viability)” value (KB cells) turn out when `CO[C@H]1C[C@@H]2CC[C@@H](C)[C@@](O)(O2)C(=O)C(=O)N2CCCC[C@H]2C(=O)O[C@H]([C@H](C)C[C@@H]2CC[C@@H](O)[C@H](OC)C2)CC(=O)[C@H](C)/C=C(\C)[C@@H](OC(=O)OCCSSC[C@H](NC(=O)[C@H](CC(=O)O)NC(=O)[C@H](CC(=O)O)NC(=O)[C@H](CCCNC(=N)N)NC(=O)[C@H](CC(=O)O)NC(=O)CC[C@H](NC(=O)c2ccc(NCc3cnc4nc(N)[nH]c(=O)c4n3)cc2)C(=O)O)C(=O)O)[C@@H](OC)C(=O)[C@H](C)C[C@H](C)/C=C/C=C/C=C/1C` [EC0371] was run?
Answer: Neither rapamycin nor EC0371 is cytotoxic; also recorded: neither rapamycin nor EC0371 was found to be cytotoxic

Question: And the “relative affinity at the folate receptor” value (folate receptor)?
Answer: 0.5
